{"source": "paper PMC11324517", "about": "(Nature, 2024)", "molecules": {"B1": {"name": "∆-hDAT (Homo sapiens; I248Y) (protein)", "chain": "AQDRETWGKKIDFLLSVIGFAVDLANVWRFPYLCYKNGGGAFLVPYLLFMVIAGMPLFYMELALGQFNREGAAGVWKICPILKGVGFTVILISLYVGFFYNVIIAWALHYLFSSFTTELPWIHCNNSWNSPNCSDAHPGDSSGDSSGLNDTFGTTPAAEYFERGVLHLHQSHGIDDLGPPRWQLTACLVLVYVLLYFSLWKGVKTSGKVVWITATMPYVVLTALLLRGVTLPGAIDGIRAYLSVDFYRLCEASVWIDAATQVCFSLGVGFGVLIAFSSYNKFTNNCYRDAIVTTSINSLTSFSSGFVVFSFLGYMAQKHSVPIGDVAKDGPGLIFIIYPEAIATLPLSSAWAVVFFIMLLTLGIDSAMGGMESVITGLIDEFQLLHRHRELFTLFIVLATFLLSLFCVTNGGIYVFTLLDHFAAGTSILFGVLIEAIGVAWFYGVGQFSDDIQQMTGQRPSLYWRLCWKLVSPCFLLFVVVVSIVTFRPPHYGAYIFPDWANALGWVIATSSMAMVPIYAAYKFCSLPGSFREKLAYAIAPEKDRELVDRGEVRQFTLRHWLKV"}, "B2": {"name": "full-length hDAT (Homo sapiens) (protein)", "chain": "MSKSKCSVGLMSSVVAPAKEPNAVGPKEVELILVKEQNGVQLTSSTLTNPRQSPVEAQDRETWGKKIDFLLSVIGFAVDLANVWRFPYLCYKNGGGAFLVPYLLFMVIAGMPLFYMELALGQFNREGAAGVWKICPILKGVGFTVILISLYVGFFYNVIIAWALHYLFSSFTTELPWIHCNNSWNSPNCSDAHPGDSSGDSSGLNDTFGTTPAAEYFERGVLHLHQSHGIDDLGPPRWQLTACLVLVIVLLYFSLWKGVKTSGKVVWITATMPYVVLTALLLRGVTLPGAIDGIRAYLSVDFYRLCEASVWIDAATQVCFSLGVGFGVLIAFSSYNKFTNNCYRDAIVTTSINSLTSFSSGFVVFSFLGYMAQKHSVPIGDVAKDGPGLIFIIYPEAIATLPLSSAWAVVFFIMLLTLGIDSAMGGMESVITGLIDEFQLLHRHRELFTLFIVLATFLLSLFCVTNGGIYVFTLLDHFAAGTSILFGVLIEAIGVAWFYGVGQFSDDIQQMTGQRPSLYWRLCWKLVSPCFLLFVVVVSIVTFRPPHYGAYIFPDWANALGWVIATSSMAMVPIYAAYKFCSLPGSFREKLAYAIAPEKDRELVDRGEVRQFTLRHWLKV"}}, "key": {"∆-hDAT [1]": {"target": "T1, ∆-hDAT (Homo sapiens, UniProt Q01959, I248Y)", "assay": "Scintillation proximity assay (SPA), [3H]WIN35428 binding to purified His-tagged ∆-hDAT", "set-up": "expressed in transfected cells; host or cells: HEK293 GnTI- cells, BacMam baculovirus transduction", "details": "β-CFT 0.617 nM, background not subtracted", "procedure": "The various buffer systems were unchanged. YSi-Cu SPA beads at 1 mg ml^−1 were added to ∆-hDAT (30 nM) in SEC buffer (0.02% digitonin, 0.002% CHS, 50 mM HEPES pH 7.8, 200 mM NaCl, 25 µM POPC and 4 µM MRS7292). [^3H]-WIN35428 (82.8 Ci mmol^−1) in 20 mM HEPES pH 7.8 and 100 mM NaCl was used at concentration points ranging from 0 to 150 nM. For background measurement, 100 µM of GBR12909 was added to the assay buffer. Reactants were added to a 96-well isoplate, briefly mixed on a shaker at room temperature, and [^3H] counts were recorded using a MicroBeta2. […] Background subtracted counts were plotted and analysed by a single-site binding model via nonlinear regression analysis in GraphPad Prism v7.05."}, "hDAT W84C": {"tested_on": "hDAT W84C", "details": "W84C mutant; cited from earlier work"}, "∆-hDAT T211H": {"target": "T2, ∆-hDAT T211H (Homo sapiens, UniProt Q01959, I248Y/T211H)", "T2 construct": "expressed in transfected cells; host or cells: HEK293 GnTI- cells, BacMam baculovirus transduction", "T2 sequence (Q01959 57-620 T211H/I248Y limits assumed)": "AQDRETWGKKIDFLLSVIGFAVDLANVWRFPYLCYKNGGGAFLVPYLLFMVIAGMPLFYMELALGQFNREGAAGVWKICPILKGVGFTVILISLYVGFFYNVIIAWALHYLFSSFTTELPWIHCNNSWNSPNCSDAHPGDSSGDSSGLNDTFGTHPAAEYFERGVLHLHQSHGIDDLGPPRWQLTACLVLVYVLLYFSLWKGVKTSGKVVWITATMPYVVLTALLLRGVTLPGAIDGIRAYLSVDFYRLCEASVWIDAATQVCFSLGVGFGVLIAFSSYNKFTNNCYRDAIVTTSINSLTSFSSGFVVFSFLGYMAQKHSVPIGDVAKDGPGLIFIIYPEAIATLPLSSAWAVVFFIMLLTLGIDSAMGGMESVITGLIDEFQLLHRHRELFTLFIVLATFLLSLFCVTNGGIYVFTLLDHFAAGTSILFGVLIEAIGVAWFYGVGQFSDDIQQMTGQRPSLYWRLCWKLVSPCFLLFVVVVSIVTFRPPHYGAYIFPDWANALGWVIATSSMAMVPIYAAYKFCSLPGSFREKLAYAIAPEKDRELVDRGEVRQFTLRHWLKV", "assay": "Zn2+ inhibition of [3H]dopamine uptake (IC50), T211H mutant", "format": "cell-based", "details": "for T211H total: [3H]dopamine uptake raw counts, Fig 3c, triplicates, replicates 1-3", "procedure": "(§1) For IC50 measurements of Zn^2+, uptake assays were carried out as described for MRS7292 with the following alterations. The uptake buffer contained EPPS at pH 8.5 in place of HEPES. Cells were washed once with uptake buffer containing 1 mM ethylenediaminetetraacetic acid (EDTA) to chelate ambient Zn^2+ from the cell growth medium, followed by second wash without EDTA. Cells were then incubated for 15 min in uptake buffers containing 0.3–300 µM added Zn^2+ for ∆-hDAT, 0.1–100 µM added Zn^2+ for T211H, and 0.03–30 µM added Zn^2+ for T211E. […] The IC50 of Zn^2+ for the T211E mutant was also measured at pH 7.5 to obtain a more complete inhibition curve."}, "∆-hDAT T211E": {"target": "T3, ∆-hDAT T211E (Homo sapiens, UniProt Q01959, I248Y/T211E)", "T3 construct": "expressed in transfected cells; host or cells: HEK293 GnTI- cells, BacMam baculovirus transduction", "T3 sequence (Q01959 57-620 T211E/I248Y limits assumed)": "as the sequence (Q01959 57-620 T211H/I248Y limits assumed) above, with H155E counted along it", "assay": "Zn2+ inhibition of [3H]dopamine uptake (IC50), T211E mutant", "format": "cell-based", "details": "for T211E total: [3H]dopamine uptake raw counts, Fig 3c, triplicates, replicates 1-3", "procedure": "as §1"}, "hDAT D191N": {"tested_on": "hDAT D191N", "details": "D191 mutated to asparagine; cited from earlier work"}, "∆-hDAT [2]": {"target": "T1, ∆-hDAT", "assay": "Zn2+ inhibition of [3H]dopamine uptake (IC50), ∆-hDAT", "format": "cell-based", "set-up": "expressed in transfected cells; host or cells: HEK293 GnTI- cells, BacMam baculovirus transduction", "details": "[3H]dopamine uptake raw counts, Fig 3c, triplicates, replicates 1-3", "procedure": "as §1"}, "∆-hDAT [3]": {"target": "T1, ∆-hDAT", "details": "∆-hDAT, HEK293 GnTI− cells, mean ± s.d., n = 3", "quoted_text": "(§2) HEK293 GnTI^− cells were transduced with Δ-hDAT and full-length hDAT P2 viruses, propagated in SF9 cells using standard methods as described in ‘Protein expression and purification’, at a cell density of 2.5 – 3.0 × 10^6 cells per ml, followed by incubation at 37 °C for 6 h. After 6 h, sodium butyrate was added to a final concentration of 10 mM, and the cells were transferred to 30 °C with 8% CO2 for 6 h. The transduced cells were seeded into 96-well poly-D-lysine coated Isoplates (Perkin Elmer) at a density of 100,000 cells per well. The plates were then incubated at 30 °C for 12–16 h before the uptake assay was initiated. The cells were initially washed with 37 °C uptake assay buffer composed of 25 mM HEPES pH 7.4, 120 mM NaCl, 5 mM KCl, 1.2 mM CaCl2, 1.2 mM MgSO4, 5 mM D-glucose, 1 mM ascorbic acid, and 1 µM Ro 41-0960, followed by incubation in 50 µl of the same buffer for 10 min. Replicates with 10 µM of GBR12909 in the uptake assay buffer were used to measure background. […] The uptake reaction was stopped by adding 100 µl of chilled inhibition buffer, uptake assay buffer supplemented with 2.5 µM GBR12909. Two consecutive washes with 100 µl of inhibition buffer were carried out, followed by resuspension of cells in 100 µl of 1% Triton X-100. Finally, 100 µl of liquid scintillation cocktail was added to each well and [^3H] counts were measured using a MicroBeta2 (Perkin Elmer). Background counts from three replicates were averaged and subtracted from total counts."}, "full-length hDAT": {"target": "full-length hDAT (Homo sapiens, UniProt Q01959)", "details": "full-length hDAT, HEK293 GnTI− cells, mean ± s.d., n = 3", "quoted_text": "as §2"}, "[4]": {"substrate": "NCCc1ccc(O)c(O)c1", "assay": "cells, lysate or membranes", "details": "HEK293 GnTI− cells, Michaelis–Menten model, mean ± s.d., n = 3, pH 7.4"}}, "note": "Values joined by “and” are separate entries in the source; they are usually repeats but may differ in a detail not shown here. Identical values can stand only once.", "data": [{"molecule": "COC(=O)C1C(c2ccc(F)cc2)CC2CCC1N2C", "note": "(single isomer, unassigned; (-)) [β-CFT, (–)-2-β-carbomethoxy-3-β-(4-fluorophenyl)tropane]", "values": [{"measurement": "SPA total counts, binding to purified ∆-hDAT", "setting": "∆-hDAT [1]", "value": "204 and 169 and 192 and 177 and 171 and 174 and 189 and 179"}]}, {"molecule": "CCc1ccc2[nH]c3nc(SCCNS(=O)(=O)c4ccc(NC(C)=O)cc4)nnc3c2c1", "note": "[KM822]", "values": [{"measurement": "effect of mutation on potency of KM822", "setting": "hDAT W84C", "value": "increases the potency"}]}, {"molecule": "[Zn+2]", "note": "[Zn^2+]", "values": [{"measurement": "T211H total", "setting": "∆-hDAT T211H; Added Zn2+ 0.14 µM", "value": "2307 and 2405 and 2334 and 1111 and 679 and 946 and 2428 and 2969 and 2868"}, {"measurement": "T211H total", "setting": "∆-hDAT T211H; Added Zn2+ 0.41 µM", "value": "1917 and 1650 and 1702 and 922 and 890 and 993 and 2213 and 1804 and 1794"}, {"measurement": "T211H total", "setting": "∆-hDAT T211H; Added Zn2+ 1.23 µM", "value": "1146 and 1389 and 1404 and 571 and 540 and 534 and 1806 and 1414 and 1274"}, {"measurement": "T211H total", "setting": "∆-hDAT T211H; Added Zn2+ 3.70 µM", "value": "951 and 892 and 809 and 316 and 317 and 411 and 837 and 824 and 1109"}, {"measurement": "T211H total", "setting": "∆-hDAT T211H; Added Zn2+ 11.11 µM", "value": "810 and 577 and 717 and 230 and 281 and 267 and 486 and 515 and 477"}, {"measurement": "T211H total", "setting": "∆-hDAT T211H; Added Zn2+ 33.33 µM", "value": "528 and 524 and 546 and 246 and 210 and 198 and 441 and 462 and 475"}, {"measurement": "T211H total", "setting": "∆-hDAT T211H; Added Zn2+ 100.00 µM", "value": "419 and 394 and 350 and 158 and 145 and 163 and 252 and 226 and 267"}, {"measurement": "IC50 of Zn2+ lower than that of ∆-hDAT", "setting": "∆-hDAT T211H; T211H mutant, [3H]dopamine uptake, pH 8.5", "value": "~20", "unit": "fold"}, {"measurement": "T211E total", "setting": "∆-hDAT T211E; Added Zn2+ 0.0457 µM", "value": "1043 and 1084 and 946 and 1214 and 1350 and 1252 and 1437 and 1516 and 1325"}, {"measurement": "T211E total", "setting": "∆-hDAT T211E; Added Zn2+ 0.14 µM", "value": "623 and 609 and 563 and 777 and 766 and 728 and 853 and 1009 and 867"}, {"measurement": "T211E total", "setting": "∆-hDAT T211E; Added Zn2+ 0.41 µM", "value": "635 and 450 and 501 and 372 (2×) and 389 and 527 and 516 and 677"}, {"measurement": "T211E total", "setting": "∆-hDAT T211E; Added Zn2+ 1.23 µM", "value": "459 and 447 and 440 and 286 and 276 and 244 and 481 and 403 (2×)"}, {"measurement": "T211E total", "setting": "∆-hDAT T211E; Added Zn2+ 3.70 µM", "value": "335 and 268 and 302 and 159 and 217 and 381 and 284 and 246 and 231"}, {"measurement": "T211E total", "setting": "∆-hDAT T211E; Added Zn2+ 11.11 µM", "value": "323 and 314 and 345 and 238 and 249 and 229 and 277 and 278"}, {"measurement": "T211E total", "setting": "∆-hDAT T211E; Added Zn2+ 33.33 µM", "value": "416 and 290 and 362 and 261 and 242 and 215 and 342 and 313 and 301"}, {"measurement": "IC50 of Zn2+ lower than that of ∆-hDAT", "setting": "∆-hDAT T211E; T211E mutant, [3H]dopamine uptake, pH 8.5", "value": "around 100 fold"}, {"measurement": "decrease in apparent Zn2+ affinity", "setting": "hDAT D191N", "value": "apparent threefold decrease"}, {"measurement": "Δ-hDAT total counts", "setting": "∆-hDAT [2]; Added Zn2+ 0.41 µM", "value": "3458 counts and 3089 counts and 3357 counts and 3017 counts and 2960 counts and 2624 counts and 3155 counts and 3308 counts and 3482 counts"}, {"measurement": "Δ-hDAT total counts", "setting": "∆-hDAT [2]; Added Zn2+ 1.23 µM", "value": "3105 counts and 3118 counts and 3175 counts and 2225 counts and 1943 counts and 2195 counts and 3616 counts and 3027 counts and 2892 counts"}, {"measurement": "Δ-hDAT total counts", "setting": "∆-hDAT [2]; Added Zn2+ 3.70 µM", "value": "1979 counts and 2178 counts and 2228 counts and 2099 counts and 1947 counts and 1866 counts and 2321 counts and 2149 counts and 1943 counts"}, {"measurement": "Δ-hDAT total counts", "setting": "∆-hDAT [2]; Added Zn2+ 11.11 µM", "value": "2029 counts and 1818 counts and 1787 counts and 1695 counts and 1560 counts and 1477 counts and 1550 counts and 1703 counts and 2026 counts"}, {"measurement": "Δ-hDAT total counts", "setting": "∆-hDAT [2]; Added Zn2+ 33.33 µM", "value": "1238 counts and 1123 counts and 1240 counts and 1063 counts and 1147 counts and 906 counts and 1573 counts and 1503 counts and 1606 counts"}, {"measurement": "Δ-hDAT total counts", "setting": "∆-hDAT [2]; Added Zn2+ 100.00 µM", "value": "771 counts and 681 counts and 793 counts and 660 counts and 598 counts and 682 counts and 1221 counts and 1015 counts and 885 counts"}, {"measurement": "Δ-hDAT total counts", "setting": "∆-hDAT [2]; Added Zn2+ 300.00 µM", "value": "402 counts and 451 counts and 435 counts and 386 counts and 349 counts and 353 counts and 418 counts and 427 counts"}]}, {"molecule": "NCCc1ccc(O)c(O)c1", "note": "[[^3H]dopamine, dopamine]", "values": [{"measurement": "reaction rate at infinite substrate concentration (Vmax) for [3H]dopamine uptake", "setting": "∆-hDAT [3]", "value": "342.8 ± 11.7", "unit": "fmol min^−1 per well"}, {"measurement": "reaction rate at infinite substrate concentration (Vmax) for [3H]dopamine uptake", "setting": "full-length hDAT", "value": "190.9 ± 10.7", "unit": "fmol min^−1 per well"}]}, {"molecule": "B1", "values": [{"measurement": "Km", "setting": "[4]; other: ∆-hDAT", "value": "0.55 ± 0.07", "unit": "µM"}]}, {"molecule": "B2", "values": [{"measurement": "Km", "setting": "[4]; other: full-length hDAT", "value": "0.56 ± 0.13", "unit": "µM"}]}]}
